# Data published in article PMC12040169 (PLOS Biology, 2025).
# Assay: in vitro
# Settings: human, hela cells, % viability
row,SMILES,"viability at 28.5 h, 10 µM [%]"
1,CC(C)NC(=O)N(C)C1CCN(c2ncnc3ccccc23)CC1 [CBK306224],92.4
2,COc1ccc2[nH]cc(CC(=O)N3CCCC4(CCN(Cc5ccccc5)C4)C3)c2c1 (stereo not shown) [CBK136883],93.5
3,Cc1cc(C)c(-c2csc(NS(=O)(=O)c3cccc(C(=O)O)c3)n2)cc1C [CBK296698],118
4,Cc1cc(OCCCCNCCO)ccc1Cl [CBK033516],111
5,Cn1c(OCc2cccnc2)nc2c1c(=O)n(Cc1ccc(Cl)c(Cl)c1)c(=O)n2C [CBK267498],84.2
6,O=C1NCC2(C/C=C/CCOc3ccccc31)CCN(C(=O)CCc1ccccc1)CC2 [CBK292017],71.2
7,CCc1c(C)sc2ncn(C3CCNCC3)c(=O)c12 [CBK282972],81.2
8,Cc1cccc(C(=O)NCCCNC(=O)c2ccncc2)c1 [CBK269572],92.8
9,CCOC(=O)N1CCN(CC2CCCCN2)CC1 (stereo not shown) [CBK022780G],83.4
10,CO[C@@]12CC[C@@H](OCC(=O)O)C[C@@H]1N(Cc1ccccc1C)CC2 [CBK307548],104
11,O=C(CSc1nnc(-c2ccc(Cl)cc2Cl)o1)c1cc2ccccc2oc1=O [CBK268698],88.7
12,NC(=O)NC(Cc1c[nH]c2ccccc12)C(=O)O (stereo not shown) [CBK218895],105
13,Cc1cc(NC(=O)C2CCN(c3ncccc3C#N)CC2)no1 [CBK305689],88.3
14,CC(=O)NCc1ccc(C)n1C [CBK046356],106
15,CN1CCN(CC(CC(=O)Nc2ccccc2)C(=O)O)CC1 (stereo not shown) [CBK286746],81.8
16,CCN(C)S(=O)(=O)c1ccc(Cl)c(Cl)c1 [CBK045392],113
17,CC(C)(C)C(=O)NC(c1nccs1)C1CCN(C(=O)C2CC2)CC1 (stereo not shown) [CBK284678],88.8
18,O=C(/C=C/c1cn(C2CC(O)C(CO)O2)c(=O)[nH]c1=O)NCCNC(=O)C(F)(F)F (stereo not shown) [CBK201214],98.2
19,O=C1NCCN(C(=O)c2cccc3cccnc23)C1Cc1ccc(-c2cccs2)cc1 (stereo not shown) [CBK285809],81.4
20,COc1ccccc1/C=N/C12CN3CN(CN(C3)C1)C2 [CBK261387],93
21,Cc1nc2ccccc2n1CC(O)COc1ccccc1 (stereo not shown) [CBK288084],106
22,COc1ccc(N2CCN(c3cncc(-c4ccc(C(N)=O)cc4)n3)CC2)cc1OC [CBK065820],93.8

row,SMILES,"viability at 28.5 h, 10 µM [%]"
1,Cc1ccc(Cc2cnc(NC(=O)C3CCCO3)s2)cc1Cl (stereo not shown) [CBK305013],96
2,CN(C)S(=O)(=O)Nc1ccc2c(ccn2Cc2ccccc2)c1 [CBK155765],86.6
3,CCOC(=O)c1c(C)n(-c2ccc(C)cc2)c2ccc(O)c(CN(C)C)c12 [CBK263499C],78.5
4,CC1CCCCN1Cc1nc2c(c(=O)n(C)c(=O)n2C)n1Cc1ccc(Br)cc1 (stereo not shown) [CBK269184],95.3
5,O=C(Nc1ccccc1C(=O)N1CCN(Cc2ccccc2)CC1)c1ccc(F)cc1 [CBK264948],99.3
6,O=C(NCc1c(F)cccc1F)C1(c2ccccc2)CCCC1 [CBK149527],91.7
7,Cc1ccc(C2=N/C(=C/c3ccc(OS(=O)(=O)c4ccc(C)c([N+](=O)[O-])c4)cc3)C(=O)O2)cc1 [CBK264647],99.1
8,CC(C)(CNC(=O)Cn1cc(C(=O)Nc2ccc(F)cc2)ccc1=O)c1cccc(F)c1 [CBK286079],99.6
9,CN(C)CCOCCS(=O)(=O)c1ccc(N2CCC(c3ccc(Cl)cc3)=N2)cc1 [CBK018115],114
10,COCC(C)NC(=O)c1cc(-c2cccs2)nc2onc(C)c12 (stereo not shown) [CBK306473],104
11,COc1ccc(-c2cc(C(=O)Nc3c(C)cccc3C)n[nH]2)c(OC)c1 [CBK288114],107
12,CCOc1ccc(-c2cncc(N3CCN(C(=O)c4ccco4)CC3)n2)cc1 [CBK065860],109
13,O=C(NCCCn1ccnc1)c1ncoc1-c1ccccc1 [CBK283887],99
14,O=C1CC(c2ccccc2)c2c(n3ccsc3nc2=O)N1 (stereo not shown) [CBK287923],98.7
15,O=C(O)c1ccccc1N1C(=O)C2CC=C(Cl)CC2C1=O (stereo not shown) [CBK287007],94.4
16,O=C(NCc1cccnc1)N1CCN(c2ccccc2)CC1 [CBK155178],98.2
17,CC(C)(C)c1nnc([C@H]2CCN(C(=O)CCC(=O)O)C2)o1 [CBK289406],96.1
18,O=C1CC(c2ccccc2)CC(NCc2ccccc2)=C1C(=S)Nc1ccccc1 (stereo not shown) [CBK264491],104
19,CC(=O)c1ccc2c(c1)[C@@H]1C=CC[C@@H]1[C@H](C(=O)O)N2 [CBK287093],91.6
20,O=C(c1cc2c(F)cccc2[nH]1)N(CCO)CCc1ccncc1 [CBK281644],98.3
21,Nc1ncc(-c2cncnc2)nc1NC1CC1 [CBK063869],101
22,CS(=O)(=O)Nc1nccnc1N1CCN(C(=O)c2ccno2)CC1 [CBK048861],107

row,SMILES,"viability at 28.5 h, 10 µM [%]"
1,O[C@@]1(c2ccccn2)CC[C@H]2CN(CC3CCCCC3)C[C@H]21 [CBK282996],96.9
2,N#Cc1ccc(C(=O)Nc2nnc(C3=COCCO3)o2)cc1 [CBK287411],83.3
3,Cc1nc[nH]c1CN(CCCn1ccnc1)Cc1ccccc1Cl [CBK282473],103
4,CN(c1ccc(C(=O)Nc2cccc(C(=O)O)c2)cc1)S(=O)(=O)c1ccccc1 [CBK265729],95.7
5,CCOC(=O)c1cn(CC)c2cc(N3CCN(C)CC3)c(F)cc2c1=O [CBK307141],92.9
6,O=C(c1ccsc1NS(=O)(=O)Cc1ccccc1[N+](=O)[O-])N1CCOCC1 [CBK042294],89.6
7,Cc1nc2ccccc2c(=O)n1Cc1cccnc1 [CBK288092],94.3
8,O=C(Cn1cc(C(=O)COc2ccccc2)c2ccccc21)Nc1ccccc1 [CBK267653],110
9,CC(=O)Nc1ccc2nc(NC(=O)c3ccc(C#N)cc3)sc2c1 [CBK287309],92.4
10,CC(C(=O)Nc1c(F)cc(F)cc1OC1CCNCC1)c1ccccc1 (stereo not shown) [CBK045896T],103
11,O=C(c1ccc(N2CC=CCC2)nc1)N1CCC(N2CCOCC2)CC1 [CBK307334],80
12,c1csc(-c2nn3c(Cn4cnc5ccccc54)nnc3s2)c1 [CBK268262],87.9
13,CC1CCN(c2ccc([N+](=O)[O-])c(N3CCC(C)CC3)c2)CC1 [CBK001367],92.5
14,O=C(Oc1ccccc1)N1CCC(n2c(=O)[nH]c3ccccc32)CC1 [CBK149865],89
15,CC(=O)Nc1cccc(-c2cnc(N)c(N3CCN(C)CC3)n2)c1 [CBK063361],107
16,Nc1cc(=O)[nH]c(SCC(=O)N2CCCc3ccccc32)n1 [CBK304576],94.1
17,Oc1ccc(CN2CCN(c3ccc(F)cc3)CC2)c2cccnc12 [CBK267985],117
18,Cc1cc(C)n(CCCC(=O)N2CCOCC(O)(CN3CCCC3)C2)n1 (stereo not shown) [CBK306550],101
19,COc1ccccc1N1CCN(CC(=O)NC2CC3CCC2C3)CC1 (stereo not shown) [CBK269162],94.8
20,Cc1ccc(OCCCSc2nnc(N)[nH]2)cc1 [CBK269215A],89.1
